Measured values from US6858618B2, “Use of rosuvastatin (zd-4522) in the treatment of heterozygous familial hypercholesterolemia” (AstraZeneca AB, priority 2000, dated 2005).
Marks after values point to notes of the source that are not given here.

Experiments:
[1] = tested on: subjects with heterozygous familial hypercholesterolemia; test: 24-week randomised double-blind Phase III trial of ZD4522 versus atorvastatin: safety assessments; details: HeFH subjects, 20/40/80 mg, safety population
Description: A further secondary objective was to determine the safety of ZD4522.
Design: A 24-week, randomised, double-blind, 2-group, parallel-group, forced-titration, multicentre, multinational trial. After a 6-week dietary lead-in period, subjects were randomised to treatment with either ZD4522 20 mg, or atorvastatin 20 mg for 6 weeks. Following this initial treatment period, all subjects with an LDL-C level >1.3 mmol/L (50 mg/dL) were force-titrated at 6-week intervals as follows; from ZD4522 20 to 40 to 80 mg, and from atorvastatin 20 to 40 to 80 mg. The maximum titrated dose of either treatment after 18 weeks was 80 mg.
Dosage: Subjects took oral doses of trial treatment once daily, approximately 3 hours after the evening meal. Doses of treatments were as follows; ZD4522 20, 40, and 80 mg, atorvastatin 20, 40, and 80 mg. Subjects had their doses titrated up at 6-week intervals in a sequential manner, if appropriate.
Safety: Standard safety assessments included adverse event pot clinical laboratory data (hepatic biochemistry, CK, renal biochemistry, haematology, urinalysis), vital signs, electrocardiograms (ECGs) and physical examination.

[2] = tested on: subjects with heterozygous familial hypercholesterolemia; test: 24-week randomised double-blind Phase III trial of ZD4522 versus atorvastatin: efficacy (lipids, guideline targets, CRP); assay type: in vivo, human; details: for mean % reduction in LDL-C / Percentage subjects reaching EAS target for LDL-C levels at Week 18, high-risk / Percentage subjects reaching EAS target for LDL-C levels at Week 18, overall / Percentage subjects reaching NCEP target for LDL-C levels at Week 18, high-risk / Percentage subjects reaching NCEP target for LDL-C levels at Week 18, overall / Percentage change from baseline to Week 18 in inflammatory marker CRP / Lsmean of percentage change from baseline to Week 18 in ApoA-I / Lsmean of percentage change from baseline to Week 18 in ApoB / Lsmean of percentage change from baseline to Week 18 in ApoB/ApoA-I ratio / Lsmean of percentage change from baseline to Week 18 in HDL-C / Lsmean of percentage change from baseline to Week 18 in LDL-C / Lsmean of percentage change from baseline to Week 18 in LDL-C/HDL-C ratio / Lsmean of percentage change from baseline to Week 18 in Non-HDL-C/HDL-C ratio / Lsmean of percentage change from baseline to Week 18 in TC / Lsmean of percentage change from baseline to Week 18 in TC/HDL-C ratio / Lsmean of percentage change from baseline to Week 18 in TG: HeFH subjects; for mean % reduction in LDL-C / Percentage subjects reaching EAS target for LDL-C levels at Week 18, high-risk / Percentage subjects reaching EAS target for LDL-C levels at Week 18, overall / Percentage subjects reaching NCEP target for LDL-C levels at Week 18, high-risk / Percentage subjects reaching NCEP target for LDL-C levels at Week 18, overall / Percentage change from baseline to Week 18 in inflammatory marker CRP: 20/40/80 mg; for mean % reduction in LDL-C: primary efficacy analysis; for Percentage subjects reaching EAS target for LDL-C levels at Week 18, high-risk / Percentage subjects reaching EAS target for LDL-C levels at Week 18, overall / Percentage subjects reaching NCEP target for LDL-C levels at Week 18, high-risk / Percentage subjects reaching NCEP target for LDL-C levels at Week 18, overall / Lsmean of percentage change from baseline to Week 18 in ApoA-I / Lsmean of percentage change from baseline to Week 18 in ApoB / Lsmean of percentage change from baseline to Week 18 in ApoB/ApoA-I ratio / Lsmean of percentage change from baseline to Week 18 in HDL-C / Lsmean of percentage change from baseline to Week 18 in LDL-C / Lsmean of percentage change from baseline to Week 18 in LDL-C/HDL-C ratio / Lsmean of percentage change from baseline to Week 18 in Non-HDL-C/HDL-C ratio / Lsmean of percentage change from baseline to Week 18 in TC / Lsmean of percentage change from baseline to Week 18 in TC/HDL-C ratio / Lsmean of percentage change from baseline to Week 18 in TG: Week 18, LOCF on ITT population; for Percentage change from baseline to Week 18 in inflammatory marker CRP: Week 18, observed data; for Lsmean of percentage change from baseline to Week 18 in ApoA-I / Lsmean of percentage change from baseline to Week 18 in ApoB / Lsmean of percentage change from baseline to Week 18 in ApoB/ApoA-I ratio / Lsmean of percentage change from baseline to Week 18 in HDL-C / Lsmean of percentage change from baseline to Week 18 in LDL-C / Lsmean of percentage change from baseline to Week 18 in LDL-C/HDL-C ratio / Lsmean of percentage change from baseline to Week 18 in Non-HDL-C/HDL-C ratio / Lsmean of percentage change from baseline to Week 18 in TC / Lsmean of percentage change from baseline to Week 18 in TC/HDL-C ratio / Lsmean of percentage change from baseline to Week 18 in TG: oral once daily, forced titration 20/40/80 mg
Description: We have conducted a Phase III trial designed to assess the efficacy of ZD4522 in subjects with HeFH. The dose-response of ZD4522 was compared with atorvastatin using the percentage change from baseline in LDL-C levels as the primary end-point. Doses of ZD4522 up to 80 mg per day were use& Atorvastatin was chosen as the comparator statin in this trial because it has the best LDL-C lowering activity of the currently marketed statins.
The primary objective was to compare the efficacy of ZD4522 (titrated to 80 mg) with that of atorvastatin (titrated to 80 mg) in reducing low-density lipoprotein cholesterol (LDL-C) levels in subjects with heterozygous familial hypercholesterolemia (HeFH) after 18 weeks of treatment.
Population: A total of 265 (200 in the ZD4522 group, 65 in the atorvastatin group) randomised to and evaluable subjects with documented heterozygous F, derived from approximately 1240 recruited subjects, were required to enable 80% power in detecting a 6% difference between groups in the percentage change from baseline in LDL-C levels.
Key exclusion criteria: Various concomitant illnesses, including active liver disease or hepatic dysfunction (defined by an alanine aminotransferase [ALT], aspartate amninotransferase [AST] or bilirubin concentration […] of normal [ULN]), active arterial disease, history of malignancy (unless basal or squamous cell skin carcinoma), uncontrolled hypertension, and uncontrolled hypothyroidism; serum creatine kinase (CK) concentration >3×ULN; usage of concomitant medications known to affect the lipid profile or present a potential safety concern (for example, through drug interaction).
Efficacy: Fasting LDL-C, total cholesterol (TC), high-density lipoprotein cholesterol (HDL-C), and TG were assessed at, Weeks 0, 2, 6, 12, and 18; fasting apolipoprotein (ApoB) and apolipoprotein A-I (ApoA-I) were assessed at Weeks 0 and 18; C-reactive protein (CRP) was assessed at Weeks 0 and 18. Dietary compliance throughout the trial was assessed and evaluated.
The primary end-point was the percentage change from baseline to Week 18 in LDL-C levels, and was analysed using analysis of variance (ANOVA) on last observations carried forward (LOCF) from an intention-to-treat (ITT) population; the initial ANOVA model included terms for treatment, center, and center-by-treatment interaction. Additional analyses using observed data from ITT and per-protocol (PP) populations were used to confirm the robustness of the Main ITT analysis.
Percentage changes from baseline in the other lipids and lipoproteins were secondary end-points of the trial and were analysed using ANOVA. The other secondary end-points of the percentage of subjects in the ITT population who achieved targets for LDL-C levels specified by the National Cholesterol Education Program (NCEP) or the European Atherosclerosis Society (EAS), and the percentage change from baseline in the inflammatory marker CRP, were summarised only.

With `CC(C)c1c(C(=O)Nc2ccccc2)c(-c2ccccc2)c(-c2ccc(F)cc2)n1CC[C@@H](O)C[C@@H](O)CC(=O)O` [Atorvastatin, atorvastatin] the “clinically significant elevations (≧10×ULN) in CK” value [1] was “no clinically significant elevations”, the “incidence of clinically significant elevations in ALT (≧3×ULN)” value [1] was 1.1% and the “number of patients with clinically significant elevations in ALT (≧3×ULN)” value [1] was 2 patients. The “overall incidence of AEs (including treatment-related AEs, AEs leading to withdrawals and SAEs)” value [1] was 65.8%, the “mean % reduction in LDL-C” value ([2]; 18 weeks, LOCF) was 50.41% and the “Percentage subjects reaching EAS target for LDL-C levels at Week 18, high-risk” value [2] was 24.2%. For the same compound, the “Percentage subjects reaching EAS target for LDL-C levels at Week 18, overall” value [2] was 24.1%, the “Percentage subjects reaching NCEP target for LDL-C levels at Week 18, high-risk” value [2] was 3.2% and the “Percentage subjects reaching NCEP target for LDL-C levels at Week 18, overall” value [2] was 46.0%. For the same compound, the “Percentage change from baseline to Week 18 in inflammatory marker CRP” value [2] was 31.28%, the “Lsmean of percentage change from baseline to Week 18 in ApoA-I” value [2] was −2.33^b % and the “Lsmean of percentage change from baseline to Week 18 in ApoB” value [2] was −44.44^b %. The “Lsmean of percentage change from baseline to Week 18 in ApoB/ApoA-I ratio” value [2] was −42.46^b %, the “Lsmean of percentage change from baseline to Week 18 in HDL-C” value [2] was 2.91^b % and the “Lsmean of percentage change from baseline to Week 18 in LDL-C” value [2] was −50.41^b %. For the same compound, the “Lsmean of percentage change from baseline to Week 18 in LDL-C/HDL-C ratio” value [2] was −51.16^b %, the “Lsmean of percentage change from baseline to Week 18 in Non-HDL-C/HDL-C ratio” value [2] was −49.86^b % and the “Lsmean of percentage change from baseline to Week 18 in TC” value [2] was −42.13^b %. For the same compound, the “Lsmean of percentage change from baseline to Week 18 in TC/HDL-C ratio” value [2] was −43.17^b % and the “Lsmean of percentage change from baseline to Week 18 in TG” value [2] was −31.60^ns %.

In the case of `CC(C)c1nc(N(C)S(C)(=O)=O)nc(-c2ccc(F)cc2)c1/C=C/[C@@H](O)C[C@@H](O)CC(=O)O` [ZD4522, (E)-7-[4-(4-fluorophenyl)-6-isopropyl-2-[methyl(methylsulfonyl)amino]pyrimidin-5-yl](3R,5S)-3,5-dihydroxyhept-6-enoic acid], the “difference between treatments in % reduction in LDL-C (versus atorvastatin 20/40/80 mg)” value ([2]; 18 weeks, LOCF, ZD4522 20/40/80 mg versus atorvastatin 20/40/80 mg) is reported as over 6%, the “mean % reduction in LDL-C” value ([2]; 18 weeks, LOCF) is reported as 57.88% and the “Percentage subjects reaching EAS target for LDL-C levels at Week 18, high-risk” value [2] is reported as 47.5%. The “Percentage subjects reaching EAS target for LDL-C levels at Week 18, overall” value [2] was 47.4%, the “Percentage subjects reaching NCEP target for LDL-C levels at Week 18, high-risk” value [2] was 23.9% and the “Percentage subjects reaching NCEP target for LDL-C levels at Week 18, overall” value [2] was 60.5%. The “Percentage change from baseline to Week 18 in inflammatory marker CRP” value [2] was 25.21%, the “Lsmean of percentage change from baseline to Week 18 in ApoA-I” value [2] was 5.86^b % and the “Lsmean of percentage change from baseline to Week 18 in ApoB” value [2] was −50.21^b %. The “Lsmean of percentage change from baseline to Week 18 in ApoB/ApoA-I ratio” value [2] was −52.03^b %, the “Lsmean of percentage change from baseline to Week 18 in HDL-C” value [2] was 12.36^b % and the “Lsmean of percentage change from baseline to Week 18 in LDL-C” value [2] was −57.88^b %. The “Lsmean of percentage change from baseline to Week 18 in LDL-C/HDL-C ratio” value [2] was −61.69^b %, the “Lsmean of percentage change from baseline to Week 18 in Non-HDL-C/HDL-C ratio” value [2] was −59.40^b % and the “Lsmean of percentage change from baseline to Week 18 in TC” value [2] was −46.35^b %. For the same compound, the “Lsmean of percentage change from baseline to Week 18 in TC/HDL-C ratio” value [2] was −51.44^b % and the “Lsmean of percentage change from baseline to Week 18 in TG” value [2] was −27.82^ns %.
